Activity calls are given as the source filed them. The rule behind the calls is not given here.
How the values were obtained:
BMDM [1] = test: Induction of macrophage repolarization in FR-beta expressing IL-4 differentiated M2 phenotype mouse BMDM cells assessed as reprogramming to M1 phenotype by measuring upregulation of TLR7 expression at 10 nM incubated for 24 hrs by western blot analysis; format: functional, cell-based
BMDM [2] = test: Induction of macrophage repolarization in FR-beta expressing IL-4 differentiated M2 phenotype mouse BMDM cells assessed as reprogramming to M1 phenotype by measuring upregulation of MyD88 expression at 10 nM incubated for 24 hrs by western blot analysis; format: functional, cell-based
BMDM [3] = test: Induction of macrophage repolarization in FR-beta expressing IL-4 differentiated M2 phenotype mouse BMDM cells assessed as reprogramming to M1 phenotype by measuring downregulation of CD206 expression at 10 nM incubated for 24 hrs by western blot analysis; format: functional, cell-based
BMDM [4] = test: Induction of macrophage repolarization in FR-beta expressing IL-4 differentiated M2 phenotype mouse BMDM cells assessed as reprogramming to M1 phenotype by measuring downregulation of Arg1 expression at 10 nM incubated for 24 hrs by western blot analysis; format: functional, cell-based
BMDM [5] = test: Induction of macrophage repolarization in FR-beta expressing IL-4 differentiated M2 phenotype mouse BMDM cells assessed as reprogramming to M1 phenotype by measuring downregulation of IL-10 level at 10 nM incubated for 24 hrs by ELISA; format: functional, cell-based
BMDM [6] = test: Induction of macrophage repolarization in FR-beta expressing IL-4 differentiated M2 phenotype mouse BMDM cells assessed as reprogramming to M1 phenotype by measuring upregulation of IL-6 level at 10 nM incubated for 24 hrs by ELISA; format: functional, cell-based
BMDM [7] = test: Induction of macrophage repolarization in FR-beta expressing IL-4 differentiated M2 phenotype mouse BMDM cells assessed as reprogramming to M1 phenotype by measuring upregulation of iNOS expression at 10 nM incubated for 24 hrs by western blot analysis; format: functional, cell-based
BMDM [8] = test: Induction of macrophage repolarization in FR-beta expressing IL-4 differentiated M2 phenotype mouse BMDM cells assessed as reprogramming to M1 phenotype by measuring TNF-alpha level at 10 nM incubated for 24 hrs by ELISA; format: functional, cell-based
BMDM [9] = test: Induction of macrophage repolarization in FR-beta expressing IL-4 differentiated M2 phenotype mouse BMDM cells assessed as reprogramming to M1 phenotype by measuring upregulation of TLR7 mRNA expression at 10 nM incubated for 24 hrs by RT-qPCR analysis; format: functional, cell-based
BMDM [10] = test: Induction of macrophage repolarization in FR-beta expressing IL-4 differentiated M2 phenotype mouse BMDM cells assessed as reprogramming to M1 phenotype by measuring downregulation of CD206 mRNA expression at 10 nM incubated for 24 hrs by RT-qPCR analysis; format: functional, cell-based
BMDM [11] = test: Induction of macrophage repolarization in FR-beta expressing IL-4 differentiated M2 phenotype mouse BMDM cells assessed as reprogramming to M1 phenotype by measuring downregulation of Arg1 mRNA expression at 10 nM incubated for 24 hrs by RT-qPCR analysis; format: functional, cell-based
BMDM [12] = test: Induction of macrophage repolarization in FR-beta expressing IL-4 differentiated M2 phenotype mouse BMDM cells assessed as reprogramming to M1 phenotype by measuring downregulation of IL-10 mRNA expression at 10 nM incubated for 24 hrs by RT-qPCR analysis; format: functional, cell-based
BMDM [13] = test: Induction of macrophage repolarization in FR-beta expressing IL-4 differentiated M2 phenotype mouse BMDM cells assessed as reprogramming to M1 phenotype by measuring upregulation of IL-6 mRNA expression at 10 nM incubated for 24 hrs by RT-qPCR analysis; format: functional, cell-based
BMDM [14] = test: Induction of macrophage repolarization in FR-beta expressing IL-4 differentiated M2 phenotype mouse BMDM cells assessed as reprogramming to M1 phenotype by measuring upregulation of iNOS mRNA expression at 10 nM incubated for 24 hrs by RT-qPCR analysis; format: functional, cell-based
BMDM [15] = test: Induction of macrophage repolarization in FR-beta expressing IL-4 differentiated M2 phenotype mouse BMDM cells assessed as reprogramming to M1 phenotype by measuring TNF-alpha mRNA expression at 10 nM incubated for 24 hrs by RT-qPCR analysis; format: functional, cell-based
4T1 [16] = test: Cytotoxicity against mouse 4T1 cells assessed as reduction in cell viability at >10 uM incubated for 24 hrs by CCK-8 assay; format: toxicity, cell-based; details: 4t1, 24 h
[17] = Cytotoxicity against mouse BMDM cells assessed as reduction in cell viability at >10 uM incubated for 24 hrs by CCK-8 assay; format: toxicity, cell-based
HUVEC [18] = test: Cytotoxicity against human HUVEC cells assessed as reduction in cell viability at >10 uM incubated for 24 hrs by CCK-8 assay; format: toxicity, cell-based
4T1 [19] = test: Antitumor activity against mouse 4T1 cells xenografted in BALB/c mouse assessed as inhibition of tumor growth at 0.333 mg/kg, iv qd for 14 days and measured every day by digital caliper analysis; format: functional, organism-based; details: time 14.0 day
[20] = Toxicity against BALB/c mouse xenografted with mouse 4T1 cells assessed as decrease in body weight at 0.333 mg/kg, iv qd for 14 days and measured every day; format: organism-based; details: in vivo, 336 h, time 14 day
4T1 [21] = test: Antitumor activity against mouse 4T1 cells xenografted in BALB/c mouse assessed as lifespan of animal's survival at 0.333 mg/kg, iv qd for 14 days; format: functional; details: time 14 day
Mus musculus [22] = test: In vivo repolarization of macrophages from M2 phenotype to M1 phenotype in BALB/c mouse xenografted with mouse 4T1 cells assessed as increase in M1 (F4/80+CD11b+CD86+) to M2 (F4/80+CD11b+CD206+) macrophage ratio in tumor at 0.333 mg/kg, iv qd for 14 days by flow cytometry; format: functional, organism-based; details: time 14.0 day
[23] = Toxicity against BALB/c mouse xenografted with mouse 4T1 cells assessed as heightened inflammatory response in lung at 0.333 mg/kg, iv qd for 14 days by Hematoxylin-Eosin staining based analysis; format: organism-based; details: in vivo, 336 h, time 14 day
[24] = Toxicity against BALB/c mouse assessed as increase in IL-6 level in plasma at 20 ug, iv measured after 2 hrs by ELISA; format: organism-based; details: in vivo, dose 20 µg
[25] = Toxicity against BALB/c mouse assessed as increase in TNF-alpha level in plasma at 20 ug, iv measured after 2 hrs by ELISA; format: organism-based; details: in vivo, dose 20 µg
[26] = Stability of the compound in mouse plasma at 5 uM and measured at 37 degC and for up to 12 hrs by HPLC analysis; format: ADME, cell-free; details: read-out: Stability
[27] = Stability of the compound in PBS measured at 4 degC and for 15 days; format: physicochemical; details: time 15 day, read-out: Stability
[28] = Prodrug release assessed as IMDQ-SH formation in presence of 10 mM GSH and measured within 1 hr by HPLC analysis; format: ADME
[29] = Prodrug release assessed as IMDQ formation in presence of 10 mM GSH and measured after 1 to 8 hrs by HPLC analysis; format: ADME; details: time 1-8 hrs
4T1 [30] = test: Cytotoxicity against mouse 4T1 cells assessed as reduction in cell viability incubated for 24 hrs by CCK-8 assay; format: toxicity, cell-based; details: 4t1, 24 h
[31] = Cytotoxicity against mouse BMDM cells assessed as reduction in cell viability incubated for 24 hrs by CCK-8 assay; format: toxicity, cell-based
HUVEC [32] = test: Cytotoxicity against human HUVEC cells assessed as reduction in cell viability incubated for 24 hrs by CCK-8 assay; format: toxicity, cell-based
4T1 [33] = test: Antitumor activity against mouse 4T1 cells xenografted in BALB/c mouse assessed as inhibition of tumor growth at 1 mg/kg, iv qd for 14 days and measured every day by digital caliper analysis; format: functional, organism-based; details: time 14.0 day
[34] = Toxicity against BALB/c mouse xenografted with mouse 4T1 cells assessed as effect on body weight at 1 mg/kg, iv qd for 14 days and measured every day; format: organism-based; details: in vivo, 336 h, time 14 day
4T1 [35] = test: Antitumor activity against mouse 4T1 cells xenografted in BALB/c mouse assessed as lifespan of animal's survival at 1 mg/kg, iv qd for 14 days; format: functional; details: time 14 day
Mus musculus [36] = test: In vivo repolarization of macrophages from M2 phenotype to M1 phenotype in BALB/c mouse xenografted with mouse 4T1 cells assessed as increase in M1 (F4/80+CD11b+CD86+) to M2 (F4/80+CD11b+CD206+) macrophage ratio in tumor at 1 mg/kg, iv qd for 14 days by flow cytometry; format: functional, organism-based; details: time 14.0 day
Mus musculus [37] = test: In vivo transition from anti-inflammatory to pro-inflammatory phenotypes in BALB/c mouse xenografted with mouse 4T1 cells assessed as decrease in proportion of Ly6C+ and Ly6G+ cells within CD45+ population at 1 mg/kg, iv qd for 14 days by flow cytometry; format: functional, organism-based; details: time 14.0 day
Mus musculus [38] = test: In vivo transition from anti-inflammatory to pro-inflammatory phenotypes in BALB/c mouse xenografted with mouse 4T1 cells assessed as upregulation in proportion of CD8+ cells at 1 mg/kg, iv qd for 14 days by flow cytometry; format: functional, organism-based; details: time 14.0 day
Mus musculus [39] = test: In vivo transition from anti-inflammatory to pro-inflammatory phenotypes in BALB/c mouse xenografted with mouse 4T1 cells assessed as CD4+ cells population at 1 mg/kg, iv qd for 14 days by flow cytometry; format: functional, organism-based; details: time 14.0 day
[40] = Toxicity against BALB/c mouse xenografted with mouse 4T1 cells assessed as pathological changes in heart at 1 mg/kg, iv qd for 14 days by Hematoxylin-Eosin staining based analysis; format: organism-based; details: in vivo, 336 h, time 14 day
[41] = Toxicity against BALB/c mouse xenografted with mouse 4T1 cells assessed as pathological changes in liver at 1 mg/kg, iv qd for 14 days by Hematoxylin-Eosin staining based analysis; format: organism-based; details: in vivo, 336 h, time 14 day
[42] = Toxicity against BALB/c mouse xenografted with mouse 4T1 cells assessed as pathological changes in spleen at 1 mg/kg, iv qd for 14 days by Hematoxylin-Eosin staining based analysis; format: organism-based; details: in vivo, 336 h, time 14 day
[43] = Toxicity against BALB/c mouse xenografted with mouse 4T1 cells assessed as pathological changes in kidney at 1 mg/kg, iv qd for 14 days by Hematoxylin-Eosin staining based analysis; format: organism-based; details: in vivo, 336 h, time 14 day
[44] = Toxicity against BALB/c mouse xenografted with mouse 4T1 cells assessed as heightened inflammatory response in lung at 1 mg/kg, iv qd for 14 days by Hematoxylin-Eosin staining based analysis; format: organism-based; details: in vivo, 336 h, time 14 day

Row | Compound | Activity (BMDM [1]) | Activity (BMDM [2]) | Activity (BMDM [3]) | Activity (BMDM [4]) | Activity (BMDM [5]) | Activity (BMDM [6]) | Activity (BMDM [7]) | Activity (BMDM [8]) | Activity (BMDM [9]) | Activity (BMDM [10]) | Activity (BMDM [11]) | Activity (BMDM [12]) | Activity (BMDM [13]) | Activity (BMDM [14]) | Activity (BMDM [15]) | Activity [24] | Activity [25] | other results
1 | CCCCc1nc2c(N)nc3ccccc3c2n1Cc1ccc(CN)cc1 | Active | Active | Active | Active | Active | Active | Active | inactive | Active | Active | Active | Active | Active | Active | inactive | Toxic | Toxic | Activity (4T1 [16]): Toxic; Activity [17]: Toxic; Activity (HUVEC [18]): Toxic; Activity (4T1 [19]): Active; Diminished Antitumor Efficacy Compared To Fgt-1 To 4 Observed; Activity [20]: Toxic; Survival (4T1 [21]): 27 days; Activity (Mus musculus [22]): inactive; Activity [23]: Toxic
2 | CCCCc1nc2c(N)nc3ccccc3c2n1Cc1ccc(CNC(=O)OCCSSC[C@H](NC(=O)CC[C@H](NC(=O)c2ccc(CCCCc3cc4c(=O)[nH]c(N)nc4[nH]3)cc2)C(=O)O)C(=O)O)cc1 | Active | Active | Active; More Pronounced Effect Compared To Fgt-2,3 Observed | Active; More Pronounced Effect Compared To Fgt-2,3 Observed | Active; More Pronounced Effect Compared To Fgt-2 Observed | Active; More Pronounced Effect Compared To Fgt-2 Observed | Active; More Pronounced Effect Compared To Fgt-2,3 Observed | inactive | Active | Active; More Pronounced Effect Compared To Fgt-2,3 Observed | Active; More Pronounced Effect Compared To Fgt-2,3 Observed | Active; More Pronounced Effect Compared To Fgt-2 Observed | Active; More Pronounced Effect Compared To Fgt-2 Observed | Active; More Pronounced Effect Compared To Fgt-2,3 Observed | inactive | Non-toxic | Non-toxic | remaining at 12 h, 5 µM [26]: 95%; remaining at 360 h [27]: > 95%; Drug metabolism [28]: metabolite_detected; Drug metabolism [29]: metabolite_detected; Activity (4T1 [30]): Non-toxic; Activity [31]: Non-toxic; Activity (HUVEC [32]): Non-toxic; Activity (4T1 [33]): Active; Most Pronounced Effect Compared To Fgt-1,2,3 Observed; Activity [34]: Non-toxic; Survival (4T1 [35]): 35 days; Activity (Mus musculus [36]): Active; Activity (Mus musculus [37]): Active; Activity (Mus musculus [38]): Active; Activity (Mus musculus [39]): inactive; Activity [40]: Non-toxic; Activity [41]: Non-toxic; Activity [42]: Non-toxic; Activity [43]: Non-toxic; Activity [44]: Non-toxic
